Assay results from patent publication US20210094954A1, “PREPARATION METHODS AND APPLICATIONS OF 3,5-DISUBSTITUTED METHYLPYRAZOLO[1,5-A]PYRIMIDINE-7-HYDROXYLIC SALTS” (priority 2019, published 2021).
Read-outs that look alike come from different tables or passages of the source.

Columns and labels:
Type in all cases: cell-based
Bacillus cereus 2 = assay: microbe, parasite or virus in culture; details: 37° C., 24 hours; for MIC: Bacillus cereus, 2, read-out: MIC values of in vitro antibacterial test results
Bacillus subtilis 168 = assay: microbe, parasite or virus in culture; details: 37° C., 24 hours; for MIC: Bacillus subtilis, 168, read-out: MIC values of in vitro antibacterial test results
[1] = test system: Enterococcus faecalis F2518(VRE); assay: microbe, parasite or virus in culture; details: for MIC: Enterococcus faecalis, VRE, 24 h, read-out: MIC values of in vitro antibacterial test results
[2] = test system: Bacillus anthracis Bacillus 1; assay: microbe, parasite or virus in culture; details: for MIC: Bacillus anthracis, 24 h, read-out: MIC values of in vitro antibacterial test results
[3] = test system: Streptococcus pneumoniae 6303 (PRSP); assay: microbe, parasite or virus in culture; details: for MIC: Streptococcus pneumoniae, PRSP, 24 h, read-out: MIC values of in vitro antibacterial test results
[4] = test system: Staphylococcus aureus 29231; assay: microbe, parasite or virus in culture; details: 37° C., 24 hours; for MIC: Staphylococcus aureus, 29231, read-out: MIC values of in vitro antibacterial test results
[5] = test system: Enterococcus faecalis 29212; assay: microbe, parasite or virus in culture; details: 37° C., 24 hours; for MIC: Enterococcus faecalis, 29212, read-out: MIC values of in vitro antibacterial test results
[6] = test system: F2518(VRE), Staphylococcus aureus resistant strain 43300(MRSA), 703 (MRSA), pneumococcal resistance bacteria 6303(PRSP); assay: microbe, parasite or virus in culture; details: read-out: MIC values (μM)
[7] = test system: Streptococcus pneumoniae M2; assay: microbe, parasite or virus in culture; details: 37° C., 24 hours; for MIC: Streptococcus pneumoniae, M2, read-out: MIC values of in vitro antibacterial test results
[8] = test system: Streptococcus pneumoniae 10351; assay: microbe, parasite or virus in culture; details: 37° C., 24 hours; for MIC: Streptococcus pneumoniae, 10351, read-out: MIC values of in vitro antibacterial test results
[9] = test system: Staphylococcus aureus 43300(MRSA); assay: microbe, parasite or virus in culture; details: for MIC: Staphylococcus aureus, MRSA, 24 h, read-out: MIC values of in vitro antibacterial test results
Clostridium perfringens = assay: microbe, parasite or virus in culture; details: for MIC: Clostridium perfringens, 24 h, read-out: MIC values of in vitro antibacterial test results
Oral Candida = assay: microbe, parasite or virus in culture; details: for MIC: Candida
[10] = test system: Staphylococcus aureus 703(MRSA); assay: microbe, parasite or virus in culture; details: for MIC: Staphylococcus aureus, MRSA, 24 h, read-out: MIC values of in vitro antibacterial test results
Peel fungus = assay: organism not typed; details: 37° C., 24 hours; for MIC: read-out: MIC values of in vitro antibacterial test results
Diphtheria bacilli = assay: organism not typed; details: 37° C., 24 hours; for MIC: read-out: MIC values of in vitro antibacterial test results
[11] = test system: Streptococcus agalactia B group; assay: microbe, parasite or virus in culture; details: 37° C., 24 hours; for MIC: Streptococcus, read-out: MIC values of in vitro antibacterial test results
[12] = 37° C., 24 hours, read-out: MIC values of in vitro antibacterial test results

Question: With `Cc1nn2c([O-])cc(-c3ccc(C(=O)[O-])cc3)nc2c1-c1ccc(F)cc1F.[Na+].[Na+]` [Compound 7, Disodium 4-(3-(2,4-difluorophenyl)-2-methyl-7-hydroxy-pyrazolo[1,5-α]pyrimidin-5-yl)benzoate] as the molecule, how does the MIC (Bacillus cereus 2) read?
Answer: < 150 µg/mL

Question: What about the MIC (Bacillus subtilis 168) of the same molecule?
Answer: > 150 µg/mL

Question: And the MIC [1]?
Answer: < 150 µg/mL

Question: What about the MIC [2] of the same molecule?
Answer: > 150 µg/mL

Question: What about the MIC [3] of the same molecule?
Answer: > 150 µg/mL

Question: What about the MIC [4] of the same molecule?
Answer: > 150 µg/mL

Question: What about the MIC [5] of the same molecule?
Answer: < 150 µg/mL

Question: And the MIC [6]?
Answer: < 100 µg/mL

Question: What about the MIC [7] of the same molecule?
Answer: < 100 µg/mL

Question: And the MIC [8]?
Answer: > 150 µg/mL

Question: And the MIC [9]?
Answer: < 100 µg/mL

Question: And the MIC (Clostridium perfringens)?
Answer: > 150 µg/mL

Question: And the MIC (Oral Candida; [12])?
Answer: > 150 µg/mL

Question: And the MIC [10]?
Answer: < 150 µg/mL

Question: And the MIC (Peel fungus)?
Answer: < 150 µg/mL

Question: And the MIC (Diphtheria bacilli)?
Answer: > 150 µg/mL

Question: And the MIC [11]?
Answer: > 150 µg/mL

Question: How did the MIC (Bacillus cereus 2) turn out when `Cc1nn2c([O-])cc(-c3ccc(C(F)(F)F)nc3)nc2c1-c1ccc(F)cc1F.[K+]` [Compound 26, Potassium 3-(2,4-difluorophenyl)-2-methyl-5-(6-(trifluoromethyl)pyridin-3-yl)pyrazolo[1,5-α]pyrimidin-7-olate] was run?
Answer: < 100 µg/mL

Question: And the MIC (Bacillus subtilis 168)?
Answer: < 100 µg/mL

Question: And the MIC [1]?
Answer: < 150 µg/mL

Question: And the MIC [2]?
Answer: > 150 µg/mL

Question: What about the MIC [3] of the same molecule?
Answer: < 150 µg/mL

Question: What about the MIC [4] of the same molecule?
Answer: < 100 µg/mL

Question: And the MIC [5]?
Answer: < 100 µg/mL

Question: And the MIC [6]?
Answer: < 100 µg/mL

Question: And the MIC [7]?
Answer: < 150 µg/mL

Question: And the MIC [8]?
Answer: < 150 µg/mL

Question: And the MIC [9]?
Answer: < 100 µg/mL

Question: And the MIC (Clostridium perfringens)?
Answer: > 150 µg/mL

Question: What about the MIC (Oral Candida; read-out: MIC values (μM)) of the same molecule?
Answer: < 100 µg/mL

Question: And the MIC (Oral Candida; [12])?
Answer: < 100 µg/mL

Question: What about the MIC [10] of the same molecule?
Answer: < 100 µg/mL

Question: And the MIC (Peel fungus)?
Answer: < 150 µg/mL

Question: And the MIC (Diphtheria bacilli)?
Answer: > 150 µg/mL

Question: What about the MIC [11] of the same molecule?
Answer: < 150 µg/mL

Question: Which results are given for `Cc1nn2c([O-])cc(-c3ccc([S](=O)(=O)[Na])nc3)nc2c1-c1ccc(F)cc1F.[Na+]` [Compound 28, Disodium 5-(3-(2,4-difluorophenyl)-2-methyl-7-hydroxypyrazolo[1,5-α]pyrimidin-5-yl)pyridine-2-sulfinate]?
Answer: MIC values of in vitro antibacterial test results (Bacillus cereus 2): ++ (key: − represents the MIC value (μM) > 150 μg/mL; + represents the MIC value (μM) < 150 μg/mL; ++ represents the MIC value (μM) < 100 μg/mL; +++ represents the MIC value (μM) < 50 μg/mL); MIC values of in vitro antibacterial test results (Bacillus subtilis 168): − (key: − represents the MIC value (μM) > 150 μg/mL; + represents the MIC value (μM) < 150 μg/mL; ++ represents the MIC value (μM) < 100 μg/mL; +++ represents the MIC value (μM) < 50 μg/mL); MIC values of in vitro antibacterial test results ([1]; 37° C., 24 hours): + (key: − represents the MIC value (μM) > 150 μg/mL; + represents the MIC value (μM) < 150 μg/mL; ++ represents the MIC value (μM) < 100 μg/mL; +++ represents the MIC value (μM) < 50 μg/mL); MIC values of in vitro antibacterial test results ([2]; 37° C., 24 hours): − (key: − represents the MIC value (μM) > 150 μg/mL; + represents the MIC value (μM) < 150 μg/mL; ++ represents the MIC value (μM) < 100 μg/mL; +++ represents the MIC value (μM) < 50 μg/mL); MIC values of in vitro antibacterial test results ([3]; 37° C., 24 hours): − (key: − represents the MIC value (μM) > 150 μg/mL; + represents the MIC value (μM) < 150 μg/mL; ++ represents the MIC value (μM) < 100 μg/mL; +++ represents the MIC value (μM) < 50 μg/mL); MIC values of in vitro antibacterial test results [4]: − (key: − represents the MIC value (μM) > 150 μg/mL; + represents the MIC value (μM) < 150 μg/mL; ++ represents the MIC value (μM) < 100 μg/mL; +++ represents the MIC value (μM) < 50 μg/mL); MIC values of in vitro antibacterial test results [5]: + (key: − represents the MIC value (μM) > 150 μg/mL; + represents the MIC value (μM) < 150 μg/mL; ++ represents the MIC value (μM) < 100 μg/mL; +++ represents the MIC value (μM) < 50 μg/mL); MIC values of in vitro antibacterial test results [7]: ++ (key: − represents the MIC value (μM) > 150 μg/mL; + represents the MIC value (μM) < 150 μg/mL; ++ represents the MIC value (μM) < 100 μg/mL; +++ represents the MIC value (μM) < 50 μg/mL); MIC values of in vitro antibacterial test results [8]: − (key: − represents the MIC value (μM) > 150 μg/mL; + represents the MIC value (μM) < 150 μg/mL; ++ represents the MIC value (μM) < 100 μg/mL; +++ represents the MIC value (μM) < 50 μg/mL); MIC values of in vitro antibacterial test results ([9]; 37° C., 24 hours): + (key: − represents the MIC value (μM) > 150 μg/mL; + represents the MIC value (μM) < 150 μg/mL; ++ represents the MIC value (μM) < 100 μg/mL; +++ represents the MIC value (μM) < 50 μg/mL); MIC values of in vitro antibacterial test results (Clostridium perfringens; 37° C., 24 hours): − (key: − represents the MIC value (μM) > 150 μg/mL; + represents the MIC value (μM) < 150 μg/mL; ++ represents the MIC value (μM) < 100 μg/mL; +++ represents the MIC value (μM) < 50 μg/mL); MIC values of in vitro antibacterial test results (Oral Candida; 37° C., 24 hours): ++ (key: − represents the MIC value (μM) > 150 μg/mL; + represents the MIC value (μM) < 150 μg/mL; ++ represents the MIC value (μM) < 100 μg/mL; +++ represents the MIC value (μM) < 50 μg/mL); MIC values of in vitro antibacterial test results ([10]; 37° C., 24 hours): + (key: − represents the MIC value (μM) > 150 μg/mL; + represents the MIC value (μM) < 150 μg/mL; ++ represents the MIC value (μM) < 100 μg/mL; +++ represents the MIC value (μM) < 50 μg/mL); MIC values of in vitro antibacterial test results (Peel fungus): + (key: − represents the MIC value (μM) > 150 μg/mL; + represents the MIC value (μM) < 150 μg/mL; ++ represents the MIC value (μM) < 100 μg/mL; +++ represents the MIC value (μM) < 50 μg/mL); MIC values of in vitro antibacterial test results (Diphtheria bacilli): − (key: − represents the MIC value (μM) > 150 μg/mL; + represents the MIC value (μM) < 150 μg/mL; ++ represents the MIC value (μM) < 100 μg/mL; +++ represents the MIC value (μM) < 50 μg/mL); MIC values of in vitro antibacterial test results [11]: − (key: − represents the MIC value (μM) > 150 μg/mL; + represents the MIC value (μM) < 150 μg/mL; ++ represents the MIC value (μM) < 100 μg/mL; +++ represents the MIC value (μM) < 50 μg/mL)

Question: Which MIC (Bacillus cereus 2) does the source give for `Cc1nn2c([O-])cc(-c3ccc(S(=O)[O-])cc3)nc2c1-c1ccc(F)cc1F.[Na+].[Na+]` [Compound 8] here?
Answer: < 150 µg/mL

Question: What about the MIC (Bacillus subtilis 168) of the same molecule?
Answer: > 150 µg/mL

Question: What about the MIC [1] of the same molecule?
Answer: < 150 µg/mL

Question: What about the MIC [2] of the same molecule?
Answer: > 150 µg/mL

Question: What about the MIC [3] of the same molecule?
Answer: > 150 µg/mL

Question: And the MIC [4]?
Answer: > 150 µg/mL

Question: What about the MIC [5] of the same molecule?
Answer: < 150 µg/mL

Question: What about the MIC [7] of the same molecule?
Answer: < 150 µg/mL

Question: What about the MIC [8] of the same molecule?
Answer: > 150 µg/mL

Question: And the MIC [9]?
Answer: < 150 µg/mL

Question: And the MIC (Clostridium perfringens)?
Answer: > 150 µg/mL

Question: What about the MIC (Oral Candida; [12]) of the same molecule?
Answer: < 150 µg/mL

Question: What about the MIC [10] of the same molecule?
Answer: < 150 µg/mL

Question: What about the MIC (Peel fungus) of the same molecule?
Answer: < 150 µg/mL

Question: And the MIC (Diphtheria bacilli)?
Answer: > 150 µg/mL

Question: What about the MIC [11] of the same molecule?
Answer: > 150 µg/mL
